The values that follow are results of earlier work, collected in the CATMoS acute toxicity set (Mansouri et al. 2021).

The term LD50 denotes the dose expected to kill half of the subjects tested.

The nature of the data set: rat acute oral toxicity. As to conditions: in vivo.
`CC12CCC(=O)CC1CCC1C2CCC2(C)C(C(=O)COC(=O)CCC(=O)O)CCC12` (stereo not drawn): the LD50 is 700 mg/kg.

Take `CCO[Si](CC)(OCC)OCC`: the LD50 was 14000 mg/kg.

As for `CN(C(=O)c1ccc(N)cc1)C1CCN(C2CCCCC2)C1` (stereo not drawn), the LD50 is 422 mg/kg.

Take `C=CC(=O)OCCOCCOC(=O)C=C`: the LD50 was 250 mg/kg.

On to `CCCC(=O)C1c2cccc(O)c2C(=O)c2c(O)cccc21`, for which the LD50 is 1580 mg/kg.

With `FC(F)(F)CO[C@@H]1CC[C@@](Cn2cncn2)(c2ccc(Cl)cc2Cl)O1`, the LD50 is 450 mg/kg.

For `c1cncc(CSSCc2cccnc2)c1`, the LD50 is 2150 mg/kg.

Consider `CCC(C)C(CN(C)C)c1cc(F)ccc1OC` (stereo not drawn), for which the LD50 is 300 mg/kg.

As for `CCN(CCO)c1cccc(C)c1`, the median lethal dose (LD50) is 1370 mg/kg.

For `N[C@@H](Cc1c[nH]c2ccc(O)cc12)C(=O)O`, the LD50 was 243 mg/kg.

For the molecule `CC[Si](OC(C)=O)(OC(C)=O)OC(C)=O`, the LD50 was 1460 mg/kg.

On to `CN(C)c1ccc(C(=N)c2ccc(N(C)C)cc2)cc1`, for which the LD50 is 3000 mg/kg.

Turning to `CN(C(=O)CF)c1cccc2ccccc12`, the LD50 was 67 mg/kg.

For `CC(C)(CCl)c1cc(Cl)nnc1Cl`, the LD50 is 1000 mg/kg.

Consider `CN(Cc1ccc(Cl)cc1Cl)S(N)(=O)=O`, for which the LD50 was 2350 mg/kg.

With `O=S(=O)(F)C1CCC(S(=O)(=O)F)C1` (stereo not drawn), the LD50 is 7.9 mg/kg.

For `CCc1ccc(CCO)nc1`, the LD50 is 4290 mg/kg.

With `O=C(CCBr)N1CCN(C(=O)CCBr)CC1`, the LD50 was 220 mg/kg.

Take `COc1cc(C)c2[nH]c(C)c(CCN3CC4CCC(CC4)C3)c2c1`: the LD50 was 787 mg/kg.

`COc1ccc2c(=O)c3ccccc3oc2c1CN1CCCCC1`: the LD50 is 183 mg/kg.

For `CCC(=O)C1(c2cccc(O)c2)CCN(C)CC1`, the LD50 is 215 mg/kg.

In the case of `C[Si](Cl)(Cl)Cl`, the LD50 was 800 mg/kg.

Regarding `CCCCOc1ccc(CC(=O)NO)cc1`, the LD50 is 3370 mg/kg.

For `C[N+](C)([O-])CCC=C1c2ccccc2CCc2ccccc21`, the LD50 is 1800 mg/kg.

As to `CCCCCCCCc1ccc(C(CBr)OCCCC)cc1` (stereo not drawn), the LD50 was 250 mg/kg.

`CN1CCN(C2=Nc3cc(Cl)ccc3Nc3ccccc32)CC1`: the LD50 was 251 mg/kg.

As to `CNC(=O)Oc1ccccc1C1OCC(C)O1` (stereo not drawn), the LD50 was 110 mg/kg.

`CC(=O)OCc1ccc(C(C)C)cc1`: the LD50 is 1450 mg/kg.

On to `O=C(O)CCCCCCCl`, for which the LD50 is 1800 mg/kg.

Consider `CN1CC2=C(C1)CN(c1c(F)cc3c(=O)c(C(=O)O)cn(C4CC4)c3c1F)C2`, for which the LD50 is 1060 mg/kg.

`CC(C)(N)CO`: the 50% lethal dose (LD50) was 2900 mg/kg.

On to `O=C(OCC1CO1)c1cccc(C(=O)OCC2CO2)c1` (stereo not drawn), for which the LD50 was 1000 mg/kg.

Regarding `CN(C)C(=O)COC(=O)Cc1ccc(OC(=O)c2ccc(NC(=N)N)cc2)cc1`, the LD50 is 3000 mg/kg.

As to `CCCc1c(OCCCCc2nnn[nH]2)ccc(C(C)=O)c1O`, the LD50 was 650 mg/kg.

Regarding `CC(N)C(OCCN(C(C)C)C(C)C)C(=O)c1ccccc1` (stereo not drawn), the LD50 was 238 mg/kg.

Take `Cc1onc(-c2c(F)cccc2Cl)c1C(=O)N[C@@H]1C(=O)N2[C@@H]1SC(C)(C)[C@@H]2C(=O)O`: the median lethal dose (LD50) was 11000 mg/kg.

With `O=C(CF)OCCOC(=O)CF`, the LD50 was 2.2 mg/kg.

For `CN(SC(Cl)(Cl)Cl)C(=O)ON=C1SC(=C(C#N)C#N)SC1(C)C`, the LD50 is 538 mg/kg.

With `CCOc1ccc(N2C(=O)C=CC2=O)cc1`, the median lethal dose (LD50) was 630 mg/kg.

Regarding `CCCCCCCCCCCC(=O)OC1=C(c2c(C)cc(C)cc2C)C(=O)c2ccccc21`, the 50% lethal dose (LD50) was 9500 mg/kg.

In the case of `O=C(O)CC1(CO)CCCCC1`, the LD50 is 20 mg/kg.

Take `COc1cc(C(Cl)(Cl)Cl)cc(Cl)n1`: the LD50 was 1500 mg/kg.

As for `CCCCN1CCOCC1`, the LD50 is 338 mg/kg.

In the case of `CCOC(C1=NCCCN1)c1ccc(Cl)c(Cl)c1` (stereo not drawn), the LD50 was 370 mg/kg.

As to `CCOP(=S)(OCC)SCSC(=S)N(C)C`, the LD50 is 150 mg/kg.

On to `CN(C)P1(=S)OCc2cc([N+](=O)[O-])ccc2O1` (stereo not drawn), for which the LD50 was 125 mg/kg.

For the molecule `COCCOC(=O)c1ccccc1C(=O)OCCOC`, the LD50 is 4400 mg/kg.

Regarding `CNc1nc(Cl)c(SC)c(N2CCN(C)CC2)n1`, the LD50 was 800 mg/kg.

As to `OCCOc1ccc(Cl)cc1Cl`, the LD50 is 1410 mg/kg.

As to `Cc1cc(C(=O)NNCc2ccccc2)no1`, the LD50 was 280 mg/kg.

With `CC(=O)CCc1ccc(O)cc1`, the LD50 was 1320 mg/kg.

Consider `O=c1[nH]c2ccc(Cl)cc2o1`, for which the LD50 was 1200 mg/kg.

Consider `CN(CCN(C)N=O)N=O`, for which the LD50 is 125 mg/kg.

As for `O=Cc1ccc([N+](=O)[O-])cc1`, the LD50 was 4700 mg/kg.

Regarding `CC(O)c1cc(N)cc(C(F)(F)F)c1` (stereo not drawn), the LD50 was 880 mg/kg.

Take `C[N+]1(CC2COC(c3ccccc3)(C3CCCCC3)O2)CCCCC1` (stereo not drawn): the median lethal dose (LD50) was 494 mg/kg.

As to `CC[N+](CC)(CC)Cc1ccc(C(C)C(C)c2ccccc2)cc1` (stereo not drawn), the LD50 is 2180 mg/kg.

For the molecule `Nc1cc([N+](=O)[O-])ccc1O`, the LD50 is 2400 mg/kg.

Consider `Oc1ccc(C(O)CCNCCCSc2ccccc2)cc1` (stereo not drawn), for which the LD50 is 650 mg/kg.

In the case of `NCCC[Si]12OCCN(CCO1)CCO2`, the 50% lethal dose (LD50) is 5800 mg/kg.

Take `NNS(=O)(=O)c1ccc(Oc2ccc(S(=O)(=O)NN)cc2)cc1`: the LD50 was 2300 mg/kg.

Consider `COC(=O)C1CCCCC1`, for which the LD50 was 3880 mg/kg.

As for `O=[n+]1c2ccccc2n([O-])c2ccc3ccccc3c21`, the LD50 is 4620 mg/kg.
